According to patent publication US20180201609A1 (AURIGENE DISCOVERY TECHNOLOGIES LIMITED, priority 2015, published 2018):
Structures can show the parent of a compound that is named as a salt.

Target: T1, IRAK-4 enzyme (Homo sapiens, UniProt Q9NWZ3)
T1 construct: purchased Millipore, USA
T1 sequence (Q9NWZ3 1-460): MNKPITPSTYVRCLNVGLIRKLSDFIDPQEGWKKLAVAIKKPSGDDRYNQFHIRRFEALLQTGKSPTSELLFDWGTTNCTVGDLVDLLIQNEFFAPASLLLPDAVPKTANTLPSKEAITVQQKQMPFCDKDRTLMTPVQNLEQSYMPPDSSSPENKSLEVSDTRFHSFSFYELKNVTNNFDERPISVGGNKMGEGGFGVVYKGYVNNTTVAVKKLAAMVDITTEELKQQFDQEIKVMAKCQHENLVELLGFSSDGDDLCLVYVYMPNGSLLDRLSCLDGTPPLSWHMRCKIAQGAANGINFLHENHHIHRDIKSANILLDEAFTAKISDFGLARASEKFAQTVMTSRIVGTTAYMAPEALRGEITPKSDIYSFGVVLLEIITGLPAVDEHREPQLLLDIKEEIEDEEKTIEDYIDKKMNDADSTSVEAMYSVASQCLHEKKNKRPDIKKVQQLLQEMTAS
Assay: IRAK-4 Biochemical Assay (TR-FRET)
Conditions: recombinant IRAK-4 kinase, 20 μM ATP; for inhibition at 0.1 µM: 0.1 μM compound; for inhibition at 1 µM: 1 μM compound
Procedure: Compounds were tested for their potential to inhibit IRAK-4 enzyme in a TR-FRET assay using recombinant IRAK-4 kinase from Millipore, USA. The assay buffer was 50 mM Tris-HCl pH 7.5, 20 mM MgCl2, 1 mM EGTA, 2 mM DTT, 3 mM MnCl2 and 0.01% Tween 20.5 ng of IRAK-4 kinase was used for the assay. After pre-incubation of enzyme with test compound for 30 minutes at room temperature, a substrate mixture containing 100 nM Biotin Histone H3 (Millipore, USA) and 20 μM ATP (Sigma, USA) was added and the reaction was incubated for 30 min. Post incubation, the reaction was stopped by the addition of stop mix containing 40 mM EDTA, 1 nM of Europium-Anti-Phospho-Histone H3 (Ser10) antibody (Perkin Elmer, USA) and 20 nM SureLight Allophycocyanin-Streptavidin (Perkin Elmer, USA). The fluorescence emission at 615 nm and 665 nm were measured at an excitation of 340 nm and the percent inhibition was estimated from the ratio of the fluorescence intensities [(F665/F615)×10000].
The compounds of the present invention were screened in the above mentioned assay and the percent inhibition data is summarized in the Table 1.

inhibition at 0.1 µM	inhibition at 1 µM	SMILES
23%	75%	Cn1cc2cc(NC(=O)c3cncc(N4CCC(O)C4)n3)c(C3CC3)cc2n1 (stereo not shown) [Example 66, N-(6-cyclopropyl-2-methyl-2H-indazol-5-yl)-6-(3-hydroxypyrrolidin-1-yl)pyrazine-2-carboxamide hydrochloride]
79%	96%	Cn1cc2cc(NC(=O)c3ccnc(N4CCC(O)C4)n3)c(N3CCCCC3)cc2n1 (stereo not shown) [Example 63, 2-(3-hydroxypyrrolidin-1-yl)-N-(2-methyl-6-(piperidin-1-yl)-2H-indazol-5-yl)pyrimidine-4-carboxamide]
74%	91%	Cc1ccc(C(=O)Nc2cc3cn(C)nc3cc2N2CCCCC2)nc1N1CCC(O)C1 (stereo not shown) [Example 59, 6-(3-hydroxypyrrolidin-1-yl)-5-methyl-N-(2-methyl-6-(piperidin-1-yl)-2H-indazol-5-yl)picolinamide]
27%	82%	Cc1cc2nn(C)cc2cc1NC(=O)c1cccc(N2CCC(O)C2)n1 (stereo not shown) [Example 70, N-(2,6-dimethyl-2H-indazol-5-yl)-6-(3-hydroxypyrrolidin-1-yl)picolinamide]
34%	78%	Cn1cc2cc(NC(=O)c3cccc(N4CC[C@H](N)C4)n3)c(N3CCCCC3)nc2n1 [Example 15, (S)-6-(3-aminopyrrolidin-1-yl)-N-(2-methyl-6-(piperidin-1-yl)-2H-pyrazolo[3,4-b]pyridin-5-yl)picolinamide]
86%	97%	Cn1cc2cc(NC(=O)c3coc(-c4cccc(N)n4)n3)c(N3CCOCC3)cc2n1 [Example 42, 2-(6-aminopyridin-2-yl)-N-(2-methyl-6-morpholino-2H-indazol-5-yl)oxazole-4-carboxamide]
98%	99%	Cc1cc(-c2nc(C(=O)Nc3cc4cn(C)nc4nc3N3CCCCC3)co2)ccn1 [Example 13, N-(2-methyl-6-(piperidin-1-yl)-2H-pyrazolo[3,4-b]pyridin-5-yl)-2-(2-methylpyridin-4-yl)oxazole-4-carboxamide hydrochloride]
96%	97%	Cn1cc2cc(NC(=O)c3cccc(-c4ccc(N)nc4)n3)c(N3CCOCC3)cc2n1 [Example 49, 6′-amino-N-(2-methyl-6-morpholino-2H-indazol-5-yl)-[2,3′-bipyridine]-6-carboxamide]
96%	101%	Cn1cc2cc(NC(=O)c3cccc(N4CC[C@@H](O)C4)n3)c(N3CCCCC3)cc2n1 [Example 57, (R)-6-(3-hydroxypyrrolidin-1-yl)-N-(2-methyl-6-(piperidin-1-yl)-2H-indazol-5-yl)picolinamide]
94%	97%	COCCn1cc2cc(NC(=O)c3cccc(N4CCC(O)C4)n3)c(N3CCCCC3)cc2n1 (stereo not shown) [Example 61, 6-(3-hydroxypyrrolidin-1-yl)-N-(2-(2-methoxyethyl)-6-(piperidin-1-yl)-2H-indazol-5-yl)picolinamide]

Continued, compound first:

SMILES	inhibition at 0.1 µM	inhibition at 1 µM
Cc1cc(-c2nc(C(=O)Nc3cc4cnn(C)c4nc3N3CCCCC3)co2)ccn1 [Example 16, N-(1-methyl-6-(piperidin-1-yl)-1H-pyrazolo[3,4-b]pyridin-5-yl)-2-(2-methylpyridin-4-yl)oxazole-4-carboxamide]	99%	99%
Cc1nn(C)c2cc(N3CCC(CO)CC3)c(NC(=O)c3cnn4cccnc34)cc12 [Example 8, N-(6-(4-(hydroxymethyl)piperidin-1-yl)-1,3-dimethyl-1H-indazol-5-yl)pyrazolo[1,5-a]pyrimidine-3-carboxamide hydrochloride]	43%	91%
CCOCC1CCN(c2cc3c(cc2NC(=O)c2coc(-c4ccnc(N)c4)n2)c(C)nn3C)CC1 [Example 35, 2-(2-aminopyridin-4-yl)-N-(6-(4-(ethoxymethyl)piperidin-1-yl)-1,3-dimethyl-1H-indazol-5-yl)oxazole-4-carboxamide]	95%	96%
COCCn1nc(C)c2cc(NC(=O)c3coc(-c4ccnc(N)c4)n3)c(N3CCC(O)CC3)cc21 [Example 9, 2-(2-aminopyridin-4-yl)-N-(6-(4-hydroxypiperidin-1-yl)-1-(2-methoxyethyl)-3-methyl-1H-indazol-5-yl)oxazole-4-carboxamide]	97%	99%
Cc1nn(C)c2cc(N3CCC(COCC4CC4)CC3)c(NC(=O)c3coc(-c4ccnc(N)c4)n3)cc12 [Example 36, 2-(2-aminopyridin-4-yl)-N-(6-(4-((cyclopropylmethoxy)methyl)piperidin-1-yl)-1,3-dimethyl-1H-indazol-5-yl)oxazole-4-carboxamide]	81%	85%
Cn1cc2cc(NC(=O)c3cccc(-c4ccnc(N)n4)n3)c(C3CC3)cc2n1 [Example 47, 6-(2-aminopyrimidin-4-yl)-N-(6-cyclopropyl-2-methyl-2H-indazol-5-yl)picolinamide]	77%	95%
Cc1nn(C)c2cc(N3CCC(CO)CC3)c(NC(=O)c3coc(-c4cc(N)ncc4Cl)n3)cc12 [Example 38, 2-(2-amino-5-chloropyridin-4-yl)-N-(6-(4-(hydroxymethyl)piperidin-1-yl)-1,3-dimethyl-1H-indazol-5-yl)oxazole-4-carboxamide hydrochloride]	50%	90%
Cc1cc(-c2nc(C(=O)Nc3cc4cnn(CCN(C)C)c4cc3N3CCC(O)CC3)co2)ccn1 [Example 2, N-(1-(2-(dimethylamino)ethyl)-6-(4-hydroxypiperidin-1-yl)-1H-indazol-5-yl)-2-(2-methylpyridin-4-yl)oxazole-4-carboxamide]	95%	98%
COCCn1nc(C)c2cc(NC(=O)c3coc(-c4ccnc(N)c4)n3)c(N3CCC(CO)CC3)cc21 [Example 10, 2-(2-aminopyridin-4-yl)-N-(6-(4-(hydroxymethyl)piperidin-1-yl)-1-(2-methoxyethyl)-3-methyl-1H-indazol-5-yl)oxazole-4-carboxamide hydrochloride]	99%	99%
C=CCOCC1CCN(c2cc3c(cc2NC(=O)c2coc(-c4ccnc(N)c4)n2)c(C)nn3C)CC1 [Example 12, N-(6-(4-((allyloxy)methyl)piperidin-1-yl)-1,3-dimethyl-1H-indazol-5-yl)-2-(2-aminopyridin-4-yl)oxazole-4-carboxamide]	95%	96%
